In US20260283966A1, “PROTEIN PARTICLES AND METHODS OF MAKING AND USING THE SAME” (Dairy Management Inc., priority 2023, published 2026):

Assay: ABTS radical scavenging capacity
Format: biochemical
Conditions: 0.05 mg mL^−1, all treatments
Procedure: ABTS radical scavenging capacity was measured according to the previously published protocol with some modifications (Dong et al., 2016). The modifications are as follow: samples were dissolved in phosphate buffer (pH 7.4) to a concentration of 0.05 mg mL^−1. Next, a 200 μl aliquot of the sample was mixed with 20 μl of the ABTS working solution and the mixture was stored in dark for 20 min at room temperature (~25° C.).

N[C@@H](Cc1c[nH]c2ccccc12)C(=O)O [Trp, L-Tryptophan]
relative ABTS radical scavenging capacity: strong relative ABTS radical scavenging capacity and was not influenced by treatments
